“Also recorded” adds a separate entry of the source. No end group written: not given here.
Legend:
[1] = biological target: T1, DMC1 ΔN loop mutant (Homo sapiens, UniProt Q14565, A148D/A183D/D180S/D182S/G147I/G149R/G153E/H181G/N178G/P152G/V179L/Y151G); experiment: Microscale thermophoresis (MST), BRCA2 peptide and DMC1 ΔN loop mutant; type: binding; conditions: labelled DMC1 ΔN loop mutant 150 nM; pH 8.0
T1 construct: DMC1 ΔN (83-340) were cloned into pHAT4; made in house
T1 sequence (Q14565 83-340 G147I/A148D/G149R/Y151G/P152G/G153E/N178G/V179L/D180S/H181G/D182S/A183D limits assumed): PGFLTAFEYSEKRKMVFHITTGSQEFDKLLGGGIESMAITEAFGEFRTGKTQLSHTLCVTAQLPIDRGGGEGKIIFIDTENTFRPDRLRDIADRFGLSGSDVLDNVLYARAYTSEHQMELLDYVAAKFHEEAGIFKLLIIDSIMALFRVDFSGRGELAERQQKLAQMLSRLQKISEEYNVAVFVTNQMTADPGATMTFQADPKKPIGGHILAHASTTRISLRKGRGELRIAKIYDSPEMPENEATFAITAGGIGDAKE
Procedure: DMC1 ΔN and DMC1 ΔN loop mutant were labelled in 10 mM HEPES pH 8.0, 150 mM NaCl with an amine reactive fluorescent dye (MonolithTM Protein Labelling Kit BLUE-NHS, Nanotemper GmbH). A serial dilution of titrant (peptide) was prepared in 10 mM HEPES pH 8.0, 150 mM NaCl, 0.05 % Tween-20. The concentration of labelled DMC1 ΔN or DMC1 ΔN loop mutant were constant at 150 nM and the concentration of the interacting peptide was titrated in 1:1 dilutions starting from 750 µM. An equal volume (10 µl) of the serial dilution and of the diluted labelled DMC1 were mixed and loaded in glass capillaries (MonolithTM NT.115 MST Premium Coated Capillaries, Nanotemper GmbH). The initial fluorescence and the thermophoretic mobility were measured on a Monolith NT.115 system (NanoTemper Technologies). […]
As a change in initial fluorescence was detected, SDS denaturation (SD) tests were performed according to the manufacturer’s instructions to determine whether these changes were ligand-induced and whether the data could therefore be used to derive affinity measurements. […] After incubating each for 5 minutes at 95 °C to denature the proteins and subject to brief centrifugation, the samples were loaded onto Premium Coated Capillaries and their initial fluorescence measurements recorded. […] Initial fluorescence readings were used to derive binding affinities.

[2] = system: DMC1 ΔN F85E; experiment: Amylose pull-down of His-DMC1 ΔN F85E (monomeric) with MBP-BRCA2 fusions; type: binding, human; conditions: lysates mixed; MBP-BRCA2 fusion; 20 mM Tris pH 8.0, 500 mM KCl, 2 mM DTT
Procedure: For affinity experiments involving DMC1 ΔN V179E and F85E, MBP-fusions of BRCA2 fragments (Ex14, amino-acids 2387-2420, Ex14-Tr, amino acids 2401-2414, BRC4, amino acids 1519-1551) were cloned into pMAT11 vectors and DMC1 ΔN mutants (V179E or F85E) were cloned into pHAT4 vectors. Lysates of bacterial cultures expressing His6-DMC1 mutants or MBP-BRCA2 constructs were mixed, and complexes were purified through amylose affinity chromatography in 20 mM Tris pH 8.0, 500 mM KCl, 2 mM DTT and eluted using 30 mM D-maltose.

[3] = system: DMC1-ssDNA filaments; experiment: EMSA, super-shift of DMC1-ssDNA filaments (TEA pH 7.5 + KCl); type: biochemical, human
Source text: What is the function of the BRCA2 Ex14-DMC1 interaction? We used electrophoretic mobility shift assays (EMSAs) to determine the impact of BRCA2-binding on DMC1 nucleoprotein filaments. We used two different conditions for nucleoprotein filament assembly. Firstly, a TAE (tris, acetate, EDTA; pH 7.5) buffer that was previously used for RAD51-ssDNA filaments, in which DMC1-ssDNA filaments were partially formed at the canonical ratio of three nucleotides to one protomer (Fig. 3a). Secondly, a TEA (triethanolamine; pH 7.5) + KCl buffer based on previous DMC1 studies[36]–[38], in which DMC1-ssDNA filament formation was more complete at the canonical ratio (Fig. 3b). […] This was noticeable using Ex14 in equimolar amounts (11 μM), and became substantial at a 5-fold stoichiometric excess (55 μM) (Fig. 3b). As the KD of the DMC1-Ex14 interaction is approximately 30 μM (Fig. 2a), the requirement for a stoichiometric excess is likely due to binding being favoured at Ex14 concentrations above the KD.
(§1) To form nucleoprotein filaments, DMC1 and RAD51 was incubated with fluorescent 100-base ssDNA (5’-FAM- […]-3’) at the concentrations indicated in the figures for 30 minutes at 4 °C in reaction buffer. For DMC1, reaction buffer is 25 mM TEA (triethanolamine) pH 7.5, 1 mM ATP, 2 mM MgCl2, 0.1 mg/ml BSA, 2 mM DTT, 200 mM KCl. For RAD51, reaction buffer is 50 mM TEA (triethanolamine), 2 mM ATP, 0.5 mM MgCl2, 2 mM DTT. For assays requiring incomplete nucleoprotein filament assembly, the reaction buffer consisted of 50 mM TAE (tris, acetate, EDTA) pH 7.5, 2 mM ATP, 2 mM MgCl2, 2 mM DTT. In nucleoprotein formation stimulation assays or supershift experiments, BRCA2Ex14 or BRCA2Ex14-AAA were added for a further 30 min at 4 °C. […] Glycerol was added at a final concentration of 3%, and samples were analysed by electrophoresis on a 1% (w/v) (for DMC1) or 0.66% (w/v) (for RAD51) agarose gel in 0.5x TAE pH 8.0 at 20–40 V for ~4 h at 4 °C. DNA was detected by FAM using a Typhoon^TM FLA 9500 (GE Healthcare), with 473 nm laser at excitation wavelength 490 nm and emission wavelength 520 nm, using the LPB filter and a PMT voltage of 500 V. To analyse RAD51 nucleoprotein filaments assembled upon 100-base poly(dT) ssDNA, gels were stained post-run using SYBR^TM Gold Nucleic Acid Gel Stain (Invitrogen) and detected using a Typhoon^TM FLA 9500 (GE Healthcare).

[4] = system: RAD51-ssDNA filaments; experiment: EMSA, protection of RAD51-ssDNA filaments from BRC4-mediated disruption (random sequence ssDNA); type: biochemical; conditions: 100-nt random ssDNA; 10-fold excess of Ex27
Procedure: as §1

[5] = system: RAD51 L180E-ssDNA filaments; experiment: EMSA, protection of RAD51 L180E-ssDNA filaments from BRC4-mediated disruption (random sequence ssDNA); type: biochemical; conditions: 100-nt random ssDNA
Procedure: as §1

[6] = system: RAD51-ssDNA (polydT) filaments; experiment: EMSA, protection of RAD51-ssDNA (polydT) filaments from BRC4-mediated disruption; type: biochemical
Procedure: as §1

Substance	interaction by MST (in words) [1]	binding in pull-down [2]	super-shift of pre-formed DMC1-ssDNA filaments ([3]; 5-fold stoichiometric excess (55 μM))	super-shift of pre-formed DMC1-ssDNA filaments ([3]; 100-nt random ssDNA, 4 °C)	super-shift of pre-formed DMC1-ssDNA filaments ([3]; equimolar (11 μM))	protection of RAD51-ssDNA filaments from BRC4-mediated disruption [4]	protection of RAD51 L180E-ssDNA filaments from BRC4-mediated disruption [5]	protection of RAD51-ssDNA (polydT) filaments from BRC4-mediated disruption ([6]; 3-fold excess of Ex27 (33 μM), 10-fold excess of BRC4)	protection of RAD51-ssDNA (polydT) filaments from BRC4-mediated disruption ([6]; 100-nt polydT, 10-fold excess of Ex27)	protection of RAD51-ssDNA filaments from BRC4-mediated disruption ([6]; equimolar Ex27 (11 µM), 10-fold excess of BRC4)
ATRNEKMRHLITTGRPTKVFVPPFKTKSHFHRVE [Ex14]	not detectable; also recorded: abolished its ability to bind Ex14	failed to interact; also recorded: no interaction	substantial	inducing a super-shift; also recorded: induced a super-shift	noticeable					
Ex27: BRCA2 exon 27 PhePP peptide, amino acids 3270-3315 (ALDFLSRLPLPPPVSPICTFVSPAAQKAFQPPRSCGTKYETPIKKK; UniProt P51587 3270-3315, looked up, fragment)						less complete; also recorded: not complete; also recorded: protected against BRC4-mediated disruption	not protected; also recorded: abrogated	some protection; also recorded: protection at a 3-fold excess	protects; also recorded: full protection; also recorded: complete protection	no protection

Source: PMC11436757, “BRCA2 stabilises RAD51 and DMC1 nucleoprotein filaments through a conserved interaction mode” (Nature Communications, 2024)
